{"source": "the NIST ThermoML archive (doi:10.1021/je049801y)", "note": "± gives the expanded uncertainty stated by the source."}
{"settings": "Crystal", "units": {"Normal melting temperature": "°C"}}
{"smiles": "Cc1ccc(C(=O)O)cc1", "note": "[4-methylbenzoic acid]", "Normal melting temperature": "182.0 ± 1"}
{"smiles": "O=C(O)c1cccc(C(=O)O)c1", "note": "[1,3-benzenedicarboxylic acid]", "Normal melting temperature": "348.1 ± 1"}
{"smiles": "O=C(O)c1ccc(C(=O)O)cc1", "note": "[1,4-benzenedicarboxylic acid]", "Normal melting temperature": "430.0 ± 1"}
{"smiles": "O=C(O)c1ccccc1", "note": "[benzoic acid]", "Normal melting temperature": "122.4 ± 1"}
